Results: PubChem BioAssay (NCI)
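48-hour exposure; five concentrations; linearly interpolated endpoints. GI50 is the concentration that inhibits growth by half. Definition used: TGI = concentration required for complete inhibition of growth.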

Columns and labels:
Experiment in all cases: DTP human tumour cell line panel, 48 h
U251 CNS = tested on: U251 CNS
SNB-19 CNS = tested on: SNB-19 CNS
CCRF-CEM leukemia = tested on: CCRF-CEM leukemia
MDA-MB-231 breast = tested on: MDA-MB-231 breast
HCT-116 colon = tested on: HCT-116 colon
PC-3 prostate = tested on: PC-3 prostate
UACC-257 melanoma = tested on: UACC-257 melanoma
MALME-3M melanoma = tested on: MALME-3M melanoma
RXF 393 renal = tested on: RXF 393 renal
DU-145 prostate = tested on: DU-145 prostate
T-47D breast = tested on: T-47D breast
HCC-2998 colon = tested on: HCC-2998 colon
MCF7 breast = tested on: MCF7 breast
SN12C renal = tested on: SN12C renal
COLO 205 colon = tested on: COLO 205 colon
HT29 colon = tested on: HT29 colon
OVCAR-3 ovarian = tested on: OVCAR-3 ovarian
NCI/ADR-RES ovarian = tested on: NCI/ADR-RES ovarian
KM12 colon = tested on: KM12 colon
SK-OV-3 ovarian = tested on: SK-OV-3 ovarian
SK-MEL-28 melanoma = tested on: SK-MEL-28 melanoma
TK-10 renal = tested on: TK-10 renal
NCI-H460 lung = tested on: NCI-H460 lung
SR leukemia = tested on: SR leukemia
UACC-62 melanoma = tested on: UACC-62 melanoma
NCI-H23 lung = tested on: NCI-H23 lung
NCI-H226 lung = tested on: NCI-H226 lung
K-562 leukemia = tested on: K-562 leukemia
SF-268 CNS = tested on: SF-268 CNS
M14 melanoma = tested on: M14 melanoma
A549 NSCLC = tested on: A549 NSCLC
SF-539 CNS = tested on: SF-539 CNS
BT-549 breast = tested on: BT-549 breast
SK-MEL-5 melanoma = tested on: SK-MEL-5 melanoma
OVCAR-5 ovarian = tested on: OVCAR-5 ovarian
HCT-15 colon = tested on: HCT-15 colon
IGROV1 ovarian = tested on: IGROV1 ovarian
SK-MEL-2 melanoma = tested on: SK-MEL-2 melanoma
LOX IMVI melanoma = tested on: LOX IMVI melanoma
MDA-MB-435 = tested on: MDA-MB-435
HOP-62 NSCLC = tested on: HOP-62 NSCLC
CAKI-1 renal = tested on: CAKI-1 renal
UO-31 renal = tested on: UO-31 renal
A498 renal = tested on: A498 renal
ACHN renal = tested on: ACHN renal
NCI-H522 lung = tested on: NCI-H522 lung
HL-60(TB) leukemia = tested on: HL-60(TB) leukemia
MOLT-4 leukemia = tested on: MOLT-4 leukemia
SNB-75 CNS = tested on: SNB-75 CNS
RPMI-8226 leukemia = tested on: RPMI-8226 leukemia
EKVX NSCLC = tested on: EKVX NSCLC
SF-295 CNS = tested on: SF-295 CNS
OVCAR-4 ovarian = tested on: OVCAR-4 ovarian
SW-620 colon = tested on: SW-620 colon
786-0 renal = tested on: 786-0 renal
OVCAR-8 ovarian = tested on: OVCAR-8 ovarian
HOP-92 NSCLC = tested on: HOP-92 NSCLC
HS 578T breast = tested on: HS 578T breast

SMILES: CC1(C)N=C(N)N=C(N)N1c1ccc(F)c(C(F)(F)F)c1
- GI50 (U251 CNS): 0.503 µM
- TGI (U251 CNS): > 100 µM
- GI50 (SNB-19 CNS): 4.47 µM
- TGI (SNB-19 CNS): > 100 µM
- GI50 (CCRF-CEM leukemia): 0.532 µM
- TGI (CCRF-CEM leukemia): > 100 µM
- GI50 (MDA-MB-231 breast): > 100 µM
- TGI (MDA-MB-231 breast): > 100 µM
- GI50 (HCT-116 colon): 0.172 µM
- TGI (HCT-116 colon): > 100 µM
- GI50 (PC-3 prostate): 0.256 µM
- TGI (PC-3 prostate): > 100 µM
- GI50 (UACC-257 melanoma): > 57.8 µM
- TGI (UACC-257 melanoma): > 100 µM
- GI50 (MALME-3M melanoma): 26.7 µM
- TGI (MALME-3M melanoma): > 100 µM
- GI50 (RXF 393 renal): > 31.5 µM
- TGI (RXF 393 renal): > 100 µM
- GI50 (DU-145 prostate): 3.18 µM
- TGI (DU-145 prostate): > 100 µM
- GI50 (T-47D breast): > 90.7 µM
- TGI (T-47D breast): > 100 µM
- GI50 (HCC-2998 colon): 1.85 µM
- TGI (HCC-2998 colon): > 100 µM
- GI50 (MCF7 breast): 0.998 µM
- TGI (MCF7 breast): > 100 µM
- GI50 (SN12C renal): 5.13 µM
- TGI (SN12C renal): > 100 µM
- GI50 (COLO 205 colon): 5.11 µM
- TGI (COLO 205 colon): > 100 µM
- GI50 (HT29 colon): 0.363 µM
- TGI (HT29 colon): > 100 µM
- GI50 (OVCAR-3 ovarian): 5.62 µM
- TGI (OVCAR-3 ovarian): > 100 µM
- GI50 (NCI/ADR-RES ovarian): > 83.6 µM
- TGI (NCI/ADR-RES ovarian): > 100 µM
- GI50 (KM12 colon): 1.81 µM
- TGI (KM12 colon): > 100 µM
- GI50 (SK-OV-3 ovarian): 10.7 µM
- TGI (SK-OV-3 ovarian): > 100 µM
- GI50 (SK-MEL-28 melanoma): 15.9 µM
- TGI (SK-MEL-28 melanoma): > 100 µM
- GI50 (TK-10 renal): 3.4 µM
- TGI (TK-10 renal): > 100 µM
- GI50 (NCI-H460 lung): 0.42 µM
- TGI (NCI-H460 lung): > 100 µM
- GI50 (SR leukemia): 0.444 µM
- TGI (SR leukemia): > 100 µM
- GI50 (UACC-62 melanoma): 2.25 µM
- TGI (UACC-62 melanoma): > 100 µM
- GI50 (NCI-H23 lung): 2.53 µM
- TGI (NCI-H23 lung): > 100 µM
- GI50 (NCI-H226 lung): > 27.6 µM
- TGI (NCI-H226 lung): > 100 µM
- GI50 (K-562 leukemia): 0.121 µM
- TGI (K-562 leukemia): > 100 µM
- GI50 (SF-268 CNS): 0.158 µM
- TGI (SF-268 CNS): > 100 µM
- GI50 (M14 melanoma): 0.827 µM
- TGI (M14 melanoma): > 100 µM
- GI50 (A549 NSCLC): 0.31 µM
- GI50 (SF-539 CNS): 0.71 µM
- TGI (SF-539 CNS): > 100 µM
- GI50 (BT-549 breast): 1.96 µM
- TGI (BT-549 breast): > 87.9 µM
- GI50 (SK-MEL-5 melanoma): 3.04 µM
- TGI (SK-MEL-5 melanoma): > 100 µM
- GI50 (OVCAR-5 ovarian): > 100 µM
- TGI (OVCAR-5 ovarian): > 100 µM
- GI50 (HCT-15 colon): 1.58 µM
- TGI (HCT-15 colon): > 100 µM
- GI50 (IGROV1 ovarian): 0.53 µM
- TGI (IGROV1 ovarian): > 100 µM
- GI50 (SK-MEL-2 melanoma): > 27.9 µM
- TGI (SK-MEL-2 melanoma): > 100 µM
- GI50 (LOX IMVI melanoma): 0.4 µM
- TGI (LOX IMVI melanoma): > 100 µM
- GI50 (MDA-MB-435): 0.239 µM
- TGI (MDA-MB-435): > 100 µM
- TGI (HOP-62 NSCLC): > 100 µM
- GI50 (CAKI-1 renal): 4.92 µM
- TGI (CAKI-1 renal): > 93.1 µM
- GI50 (UO-31 renal): 8.86 µM
- TGI (UO-31 renal): > 100 µM
- GI50 (A498 renal): 9.84 µM
- TGI (A498 renal): > 100 µM
- GI50 (ACHN renal): 2.28 µM
- TGI (ACHN renal): > 100 µM
- GI50 (NCI-H522 lung): 3.78 µM
- TGI (NCI-H522 lung): > 100 µM
- GI50 (HL-60(TB) leukemia): 0.438 µM
- TGI (HL-60(TB) leukemia): > 100 µM
- GI50 (MOLT-4 leukemia): 0.727 µM
- TGI (MOLT-4 leukemia): > 100 µM
- TGI (SNB-75 CNS): > 100 µM
- GI50 (RPMI-8226 leukemia): 3.42 µM
- TGI (RPMI-8226 leukemia): > 100 µM
- GI50 (EKVX NSCLC): 1.53 µM
- TGI (EKVX NSCLC): > 100 µM
- GI50 (SF-295 CNS): 0.408 µM
- GI50 (OVCAR-4 ovarian): 22.6 µM
- TGI (OVCAR-4 ovarian): > 100 µM
- GI50 (SW-620 colon): 0.233 µM
- TGI (SW-620 colon): > 100 µM
- GI50 (786-0 renal): 0.543 µM
- TGI (786-0 renal): > 100 µM
- GI50 (OVCAR-8 ovarian): 0.597 µM
- TGI (OVCAR-8 ovarian): > 100 µM
- GI50 (HOP-92 NSCLC): 12.4 µM
- TGI (HOP-92 NSCLC): > 100 µM
- GI50 (HS 578T breast): 21.2 µM
- TGI (HS 578T breast): > 100 µM
